Data published in PubChem BioAssay AID220 (DTP/NCI, 2004).
Where “and” joins values, the source holds several entries; their conditions need not be identical. Equal values may be shown once. Inconclusive results are not listed.

Test system: CD8F1 mice, subcutaneous mammary adenocarcinoma, T/C%
Experiment: NCI In Vivo Anticancer Drug Screen. Data for tumor model Mammary Adenocarcinoma CD8F1 (subcutaneous) in CD8F1
Conditions: higher = larger tumour
Summary of the method: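 Compound-treated versus vehicle-treated mice with transplantable tumors; survival or tumor size compared as T/C.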

[1] = endpoint: median tumor weight (est.), dose: 200.0 mg/kg/injection, schedule: Q07DX005 (ip), vehicle: saline
[2] = endpoint: median tumor weight (est.), dose: 25.0 mg/kg/injection, schedule: Q07DX005 (ip), vehicle: saline with Tween-80
[3] = endpoint: median tumor weight (est.), dose: 50.0 mg/kg/injection, schedule: Q07DX005 (ip), vehicle: saline with Tween-80
[4] = endpoint: median tumor weight (est.), dose: 100.0 mg/kg/injection, schedule: Q07DX005 (ip), vehicle: saline with Tween-80
[5] = endpoint: median tumor weight (est.), dose: 12.5 mg/kg/injection, schedule: Q07DX005 (ip), vehicle: Klucel (hydroxypropylcellulose) (HPC)
[6] = endpoint: median tumor weight change, dose: 62.5 mg/kg/injection, schedule: Q01DX001 (ip), vehicle: saline with Tween-80
[7] = endpoint: median tumor weight change, dose: 125.0 mg/kg/injection, schedule: Q01DX001 (ip), vehicle: saline with Tween-80
[8] = endpoint: median tumor weight (est.), dose: 12.5 mg/kg/injection, schedule: Q07DX005 (ip), vehicle: saline with Tween-80
[9] = endpoint: median tumor weight (est.), dose: 200.0 mg/kg/injection, schedule: Q07DX005 (ip), vehicle: saline with Tween-80
[10] = endpoint: median tumor weight (est.), dose: 400.0 mg/kg/injection, schedule: Q07DX005 (ip), vehicle: saline with Tween-80

SMILES: NCCc1ccc(O)c(O)c1
- T/C (endpoint: mean tumor weight, dose: 300.0 mg/kg/injection, schedule: Q07DX005 (ip), vehicle: saline): 39 % of control
- T/C (endpoint: mean tumor weight, dose: 600.0 mg/kg/injection, schedule: Q07DX005 (ip), vehicle: saline): 87 % of control
- T/C (endpoint: median tumor weight (est.), dose: 25.0 mg/kg/injection, schedule: Q07DX005 (ip), vehicle: saline): 62 % of control
- T/C [1]: 83 % of control
- T/C (endpoint: median tumor weight (est.), dose: 300.0 mg/kg/injection, schedule: Q07DX005 (ip), vehicle: saline): 74 % of control

SMILES: S=C=NCCc1ccccc1
- T/C [2]: 120 % of control
- T/C [3]: 111 % of control
- T/C [4]: 53 % of control

SMILES: CC(=O)[O][Pb]([O]C(C)=O)([c]1ccccc1)[c]1ccccc1
- T/C [5]: 124 % of control
- T/C (endpoint: median tumor weight (est.), dose: 25.0 mg/kg/injection, schedule: Q07DX005 (ip), vehicle: Klucel (hydroxypropylcellulose) (HPC)): 80 % of control
- T/C (endpoint: median tumor weight (est.), dose: 50.0 mg/kg/injection, schedule: Q07DX005 (ip), vehicle: Klucel (hydroxypropylcellulose) (HPC)): 65 % of control
- T/C (endpoint: median tumor weight (est.), dose: 100.0 mg/kg/injection, schedule: Q07DX005 (ip), vehicle: Klucel (hydroxypropylcellulose) (HPC)): 86 % of control
- T/C (endpoint: median tumor weight (est.), dose: 200.0 mg/kg/injection, schedule: Q07DX005 (ip), vehicle: Klucel (hydroxypropylcellulose) (HPC)): 75 % of control
- T/C (endpoint: median tumor weight (est.), dose: 400.0 mg/kg/injection, schedule: Q07DX005 (ip), vehicle: Klucel (hydroxypropylcellulose) (HPC)): 29 % of control

SMILES: O=C1NC(=O)C2C3C=CC(C12)C1C2C(=O)NC(=O)C2C31 (stereo not drawn)
- T/C (endpoint: median tumor weight change, dose: 18.0 mg/kg/injection, schedule: Q01DX005 (ip), vehicle: water): 62 % of control
- T/C (endpoint: median tumor weight change, dose: 30.0 mg/kg/injection, schedule: Q01DX005 (ip), vehicle: water): 17 % of control
- T/C (endpoint: median tumor weight change, dose: 50.0 mg/kg/injection, schedule: Q01DX005 (ip), vehicle: water): -5 % of control
- T/C (endpoint: median tumor weight change, dose: 54.0 mg/kg/injection, schedule: Q01DX001 (ip), vehicle: saline): 64 % of control
- T/C (endpoint: median tumor weight change, dose: 62.0 mg/kg/injection, schedule: Q01DX001 (ip), vehicle: saline with Tween-80): 70 % of control
- T/C [6]: 78 % of control
- T/C (endpoint: median tumor weight change, dose: 90.0 mg/kg/injection, schedule: Q01DX001 (ip), vehicle: saline): 30 % of control
- T/C [7]: 15 % of control and 27 % of control
- T/C (endpoint: median tumor weight change, dose: 250.0 mg/kg/injection, schedule: Q01DX001 (ip), vehicle: saline with Tween-80): -25 % of control

SMILES: CN1CCN(Cc2nc3cccc4c3c([n+]2[O-])-c2ccccc2-4)CC1
- T/C [8]: 180 % of control
- T/C [2]: 114 % of control
- T/C [3]: 99 % of control
- T/C [4]: 120 % of control
- T/C [9]: 68 % of control

SMILES: Nc1nc2c(ncn2C2OC(CO)C(O)C2O)c(=O)[nH]1 (stereo not drawn)
- T/C [4]: 86 % of control
- T/C [9]: 92 % of control
- T/C [10]: 110 % of control
- T/C (endpoint: median tumor weight (est.), dose: 800.0 mg/kg/injection, schedule: Q07DX005 (ip), vehicle: saline with Tween-80): 88 % of control
- T/C (endpoint: median tumor weight (est.), dose: 1600.0 mg/kg/injection, schedule: Q07DX005 (ip), vehicle: saline with Tween-80): 103 % of control
- T/C (endpoint: median tumor weight (est.), dose: 3200.0 mg/kg/injection, schedule: Q07DX005 (ip), vehicle: saline with Tween-80): 84 % of control

SMILES: CN1CCc2c(c3ccccc3c3ccccc23)C1
- T/C (endpoint: median tumor weight change, dose: 12.5 mg/kg/injection, schedule: Q01DX001 (ip), vehicle: Klucel (hydroxypropylcellulose) (HPC)): 57 % of control
- T/C (endpoint: median tumor weight change, dose: 25.0 mg/kg/injection, schedule: Q01DX001 (ip), vehicle: Klucel (hydroxypropylcellulose) (HPC)): 65 % of control
- T/C (endpoint: median tumor weight change, dose: 50.0 mg/kg/injection, schedule: Q01DX001 (ip), vehicle: Klucel (hydroxypropylcellulose) (HPC)): 49 % of control
- T/C (endpoint: median tumor weight change, dose: 62.5 mg/kg/injection, schedule: Q01DX001 (ip), vehicle: Klucel (hydroxypropylcellulose) (HPC)): 74 % of control
- T/C (endpoint: median tumor weight change, dose: 100.0 mg/kg/injection, schedule: Q01DX001 (ip), vehicle: Klucel (hydroxypropylcellulose) (HPC)): 27 % of control
- T/C (endpoint: median tumor weight change, dose: 125.0 mg/kg/injection, schedule: Q01DX001 (ip), vehicle: Klucel (hydroxypropylcellulose) (HPC)): 56 % of control

SMILES: COc1cc2cc(c1Cl)N(C)C(=O)CC(OC(=O)C(C)C)C1(C)OC1C(C)C1CC(O)(NC(=O)O1)C(OC)/C=C/C=C(C)C2 (stereo not drawn)
- T/C (endpoint: median tumor weight (est.), dose: 9.3 micrograms/kg/injection, schedule: Q07DX005 (ip), vehicle: saline + alcohol): 79 % of control
- T/C (endpoint: median tumor weight (est.), dose: 18.7 micrograms/kg/injection, schedule: Q07DX005 (ip), vehicle: saline + alcohol): 103 % of control
- T/C (endpoint: median tumor weight (est.), dose: 75.0 micrograms/kg/injection, schedule: Q07DX005 (ip), vehicle: saline + alcohol): 89 % of control
- T/C (endpoint: median tumor weight (est.), dose: 150.0 micrograms/kg/injection, schedule: Q07DX005 (ip), vehicle: saline + alcohol): 45 % of control

SMILES: C=CS(C=C)=NS(=O)(=O)c1ccc(C)cc1
- T/C (endpoint: median tumor weight (est.), dose: 3.12 mg/kg/injection, schedule: Q07DX005 (ip), vehicle: Klucel (hydroxypropylcellulose) (HPC)): 94 % of control
- T/C (endpoint: median tumor weight (est.), dose: 6.25 mg/kg/injection, schedule: Q07DX005 (ip), vehicle: Klucel (hydroxypropylcellulose) (HPC)): 101 % of control
- T/C [5]: 89 % of control

SMILES: N=C(N)SCc1cccc2c(=O)cc(-c3ccccc3)oc12
- T/C (endpoint: median tumor weight change, dose: 125.0 mg/kg/injection, schedule: Q01DX001 (ip), vehicle: suspension in saline): 151 % of control
- T/C (endpoint: median tumor weight change, dose: 250.0 mg/kg/injection, schedule: Q01DX001 (ip), vehicle: suspension in saline): 151 % of control
- T/C (endpoint: median tumor weight change, dose: 500.0 mg/kg/injection, schedule: Q01DX001 (ip), vehicle: suspension in saline): 106 % of control
- T/C (endpoint: median tumor weight change, dose: 1000.0 mg/kg/injection, schedule: Q01DX001 (ip), vehicle: suspension in saline): 123 % of control

SMILES: NC(=S)N/N=C/c1ccc(OC(=O)COc2ccc(Cl)cc2)cn1
- T/C (endpoint: mean tumor weight, dose: 25.0 mg/kg/injection, schedule: Q07DX008 (ip), vehicle: saline): 100 % of control
- T/C (endpoint: mean tumor weight, dose: 50.0 mg/kg/injection, schedule: Q07DX008 (ip), vehicle: saline): 50 % of control
- T/C (endpoint: mean tumor weight, dose: 100.0 mg/kg/injection, schedule: Q07DX008 (ip), vehicle: saline): 64 % of control
- T/C (endpoint: mean tumor weight, dose: 200.0 mg/kg/injection, schedule: Q07DX008 (ip), vehicle: saline): 60 % of control
- T/C (endpoint: mean tumor weight, dose: 400.0 mg/kg/injection, schedule: Q07DX008 (ip), vehicle: saline): 105 % of control
- T/C [8]: 52 % of control
- T/C [2]: 167 % of control
- T/C [3]: 79 % of control
- T/C [4]: 114 % of control
- T/C [9]: 82 % of control
- T/C [10]: 119 % of control

SMILES: CCN(CC)CCNc1ccc(C)c2sc3ccc(O)cc3c(=O)c12
- T/C [6]: 59 % of control
- T/C [7]: 169 % of control
- T/C (endpoint: median tumor weight change, dose: 684.0 mg/kg/injection, schedule: Q01DX001 (ip), vehicle: saline with Tween-80): 37 % of control

SMILES: Nc1cccc(=O)[nH]1
- T/C (endpoint: median tumor weight (est.), dose: 50.0 mg/kg/injection, schedule: Q07DX005 (ip), vehicle: saline): 21 % of control
- T/C (endpoint: median tumor weight (est.), dose: 100.0 mg/kg/injection, schedule: Q07DX005 (ip), vehicle: saline): 68 % of control
- T/C [1]: 70 % of control
- T/C (endpoint: median tumor weight (est.), dose: 400.0 mg/kg/injection, schedule: Q07DX005 (ip), vehicle: saline): 96 % of control and 100 % of control
- T/C (endpoint: median tumor weight (est.), dose: 400.0 mg/kg/injection, schedule: Q07DX005 (ip), vehicle: suspension in saline): 47 % of control
- T/C (endpoint: median tumor weight (est.), dose: 800.0 mg/kg/injection, schedule: Q07DX005 (ip), vehicle: saline): 78 % of control
- T/C (endpoint: median tumor weight (est.), dose: 800.0 mg/kg/injection, schedule: Q07DX005 (ip), vehicle: suspension in saline): 56 % of control
- T/C (endpoint: median tumor weight (est.), dose: 1600.0 mg/kg/injection, schedule: Q07DX005 (ip), vehicle: suspension in saline): 59 % of control
- T/C (endpoint: median tumor weight change, dose: 62.5 mg/kg/injection, schedule: Q01DX001 (ip), vehicle: saline): 55 % of control
- T/C (endpoint: median tumor weight change, dose: 125.0 mg/kg/injection, schedule: Q01DX001 (ip), vehicle: saline): 78 % of control
- T/C (endpoint: median tumor weight change, dose: 250.0 mg/kg/injection, schedule: Q01DX001 (ip), vehicle: saline): 90 % of control
- T/C (endpoint: median tumor weight change, dose: 500.0 mg/kg/injection, schedule: Q01DX001 (ip), vehicle: saline): 72 % of control
- T/C (endpoint: median tumor weight change, dose: 1000.0 mg/kg/injection, schedule: Q01DX001 (ip), vehicle: saline): 70 % of control

SMILES: CC/C(=C(/CC)c1ccc(O)cc1)c1ccc(O)cc1
- T/C (endpoint: median tumor weight (est.), dose: 12.5 mg/kg/injection, schedule: Q07DX005 (ip), vehicle: water): 70 % of control
- T/C (endpoint: median tumor weight (est.), dose: 25.0 mg/kg/injection, schedule: Q07DX005 (ip), vehicle: water): 66 % of control
- T/C (endpoint: median tumor weight (est.), dose: 50.0 mg/kg/injection, schedule: Q07DX005 (ip), vehicle: water): 111 % of control
- T/C (endpoint: median tumor weight (est.), dose: 100.0 mg/kg/injection, schedule: Q07DX005 (ip), vehicle: water): 101 % of control
- T/C (endpoint: median tumor weight (est.), dose: 200.0 mg/kg/injection, schedule: Q07DX005 (ip), vehicle: water): 49 % of control
